From patent US10377647B2, “Systems and methods for use of water with switchable ionic strength” (Queen's University at Kingson, priority 2010, dated 2019)
Where two headings read alike, the source gives them in different places. Blank lines part the entries; values can stand above or below the compound they belong to.

Experiments:
[1] = Miscibility of diamines and triamines with water before and after CO2; type: physicochemical; settings: 5:1 w/w water:additive; for miscibility with water After addition of CO2: CO2 90 min; for miscibility with water Before addition of CO2: room temperature
Description: A 5:1 w/w solution of water and the liquid additive (total volume 5 mL) were mixed together in a glass vial at room temperature. Whether the mixture formed one or two liquid phases was visually observed. Then CO2 was bubbled through the mixture via a single narrow gauge steel needle at a flow rate of ˜5 mL min^−1 for 90 min. Whether the mixture formed one or two phases was visually observed.

[2] = type: physicochemical
Description: Specifically, a 1:1:1 (v/v/v) mixture of DBU, water and compound was added to a six dram vial containing a magnetic stirrer and fitted with a rubber septa. […] A second narrow gauge steel needle was inserted to allow venting of the gaseous phase.
When the compound was THF, a single phase miscible liquid mixture was observed.

[3] = Solution conductivity before and after CO2; type: physicochemical
Description: The solution conductivities of the materials given below were measured. The mass of each material indicated was weighed into a 150 mL beaker charged with a stir bar along with 100 mL of ultra pure water. The solutions were stirred until visibly dissolved and their conductivity measured. […] All solutions were left to stir overnight to test reproducibility. Solution conductivities were re-recorded giving little change in values. CO2 was bubbled at 10 psi through a fine glass frit tube (to make bubble size as small as possible for greater surface area and therefore faster carbonation) with each solution for 30 minutes. In the case of TBAB and functionalized PMMA, significant amounts of bubbling were observed. Solution conductivities were re-recorded.

[4] = Reversible protonation monitored by conductivity, fritted glass apparatus; type: physicochemical
Description: 1:1 v/v solutions of the various additives and distilled, deionised water were prepared in six dram glass vials and transferred to a fritted glass apparatus which acted as a reaction vessel. The fritted glass apparatus consisted of a long narrow glass tube leading to a fine glass frit having a diameter of approximately 4 cm. The other end of the glass frit was connected to a cylindrical glass tube which held the solution of the additive during contacting with the trigger gas. This apparatus allowed a multiple source of trigger gas bubbles to contact the solution, compared to the single point source of Example 5.
A trigger gas chosen from CO2, air or nitrogen was bubbled through the solution via the glass frit at a flow rate of 110 mL min^−1 as measured by a J&W Scientific ADM 2000 Intelligent Flowmeter (CA, USA). For each conductivity measurement, the solution was transferred back to a six dram vial, cooled to 298 K and measured in triplicate. Conductivity measurements were performed using a Jenway 470 Conductivity Meter (Bibby Scientific, NJ, US) having a cell constant of 1.02 cm^−1.

[5] = Degree of protonation of methylated spermine by carbonated water, 1H NMR; type: physicochemical; settings: 0.1 M in D2O, room temperature, CO2
From the text: (§1) The spectrum was then acquired.
(§2) This process was repeated.

[6] = 4 M solution; cited from earlier work
[7] = Viscosity with and without CO2 (capillary viscometer); type: physicochemical; settings: 104.6 mg in 10 mL H2O
Description: In order to study the use of switchable water additives in a method and system for viscosity control, a switchable additive or other molecule of interest was placed in a 50 mL round-bottom flask equipped with a 1 cm magnetic stir-bar and placed on a stir-plate. […] The solution was then transferred in to a Technical Glass Products, Inc. C. F. Opage viscometer with either a 100 or 200 capillary tube. The measurements were taken at room temperature (i.e., from about 15-30° C.) and repeated twice. The solution was transferred back into the round bottom flask and CO2 was introduced to the mixture by bubbling for 30 minutes at a flow rate of 80 ml/min. The carbonated solution was then put into the viscometer and the viscosity was measured three times. The viscosity in centistokes (cS) was calculated from the times the solution took to run through the viscometer.

[8] = Switchable osmotic pressure (Zimm-Meyerson osmometer, hydrostatic pressure); type: physicochemical
Description: The switchable osmotic pressure measurements were conducted on a Zimm-Meyerson osmometer using Sterlitech UTC-80LB toray flat sheet membranes. A 0.1% (w/v) switchable polyamine solution in water was made by dissolving 20 mg of the corresponding polyamine in 20 mL deionized H2O. […] The system was closed with a lid and allowed to reach equilibrium overnight. Measurements of the capillary tube and the control capillary were taken. The draw solution was then taken out of the cell and transferred into a graduated cylinder. Both the draw solution and the solution of the outer cell were carbonated by bubbling CO2 with a gas dispersion tube for 1 h. The draw solution was transferred back into the glass cell of the osmometer, the system was closed and held under an atmosphere of CO2. A constant flow of CO2 was maintained using two gauche needles, one of them connected to a CO2 source with a flow rate of 10 ml/min. The heights taken were height differences of the capillary tube connected to the cell and the control capillary tube. Based on these heights the hydrostatic pressure was calculated using the equation: Π=ρhg where Π is the hydrostatic pressure, ρ is the density of the solution, h is the height of the water column and g is the force of gravity. Hydrostatic pressure is taken to be proportional to osmotic pressure of the solution at equilibrium.

[9] = Degree of protonation by CO2 in D2O by 1H NMR; type: physicochemical; settings: 0.1 M in D2O
From the text: as §1, §2

[10] = Zeta potential of suspended clay particles; type: physicochemical
Description: (§3) Clay fines were weighed and placed into individual vials (0.025 g, Ward's Natural Science Establishment). Kaolinite and montmorillonite were used as received, but illite clay was ground into a powder using a mortar and pestle. Solutions containing additives were made with deionized water (18.2 MΩ/cm, Millipore) and 10 mL was added to the clay fines. A suspension was created using a vortex mixer and subsequently dispensed into a folded capillary cell. The zeta potential was measured using a Malvern Zetasizer instrument. The errors reported on the zeta potential values were the standard deviations of the zeta potential peaks measured.
(§4) Unless specified, all carbon dioxide treatments were conducted with the aqueous solutions prior to addition to the clay fines. For applicable measurements, ultra pure carbon dioxide (Supercritical CO2 Chromatographic Grade, Paxair) was bubbled through the solutions using a syringe.

[11] = Zeta potential of suspended clay particles; type: physicochemical; settings: for Zeta Potential: kaolinite clay
Description: as §3, §4
Another experiment was performed in which CO2 was bubbled through a 1 mM aqueous solution of TMDAB that already contained clay fines (a method referred to as “switching in situ”).

[12] = pH of 5% (w/v) kaolinite suspensions; type: physicochemical
Description: The pH of the following 5% (w/v) kaolinite suspensions were measured: CO2 blank and 1 mM TMDAB and 10 mM TMDAB after CO2-treatment. To investigate the effect of pH on suspension settling behaviour, 5% (w/v) kaolinite suspensions were prepared, and the pH of each suspension was adjusted with HCl and NaOH to match the pH of corresponding treatment conditions. To investigate the effect of ionic strength on suspension settling behaviour, pH was again corrected to match the pH of corresponding treatment conditions, and ionic strength was adjusted with NaCl or ammonium sulphate, assuming all basic sites on the diamine were protonated.

[13] = 1 mM TMDAB + 1 h CO2 + […] N2 at 70° C.

miscibility with water After addition of CO2 [1]: miscible
miscibility with water Before addition of CO2 [1]: miscible
Structure (SMILES): CN(C)Cc1cc(CN(C)C)cc(CN(C)C)c1 [1,3,5-C6H3(CH2NMe2)3, N,N,N′,N′,N″,N″-1,3,5-benzenetrimethanamine]

miscibility with water After addition of CO2 [1]: miscible
miscibility with water Before addition of CO2 [1]: immiscible
Structure (SMILES): CN(C)CC1CC(CN(C)C)CC(CN(C)C)C1 (stereo not shown) [CHTDMA, 1,1′,1″-(cyclohexane-1,3,5-triyl)tris(N,N-dimethylmethanamine)]

Structure (SMILES): C1CCC2=NCCCN2CC1 [DBU, 1,8-diazabicyclo-[5.4.0]-undec-7-ene]
solubility of non-ionic amidine form in water [2]: soluble in water

C after 30 mins CO2 ([3]; CO2 bubbled at 10 psi, 30 minutes): 3360 μS/cm
Initial C ([3]; mass as listed in 100 mL ultra pure water): 398 μS/cm
Structure (SMILES): CN(C)CCCN [H2N(CH2)3NMe2, 3-dimethylamino-1-propylamine]

conductivity of ionic form solution after N2 flushing ([4]; 1:1 v/v H2O:amine, N2 at 80° C., after 20 minutes): close to zero
Structure (SMILES): CN(C)CCN(C)CCN(C)CCN(C)C [HMTETA, 1,1,4,7,10,10-hexamethyl triethylenetetramine]

degree of protonation [5]: 93%
Structure (SMILES): CN(C)CCCN(C)CCCCN(C)CCCN(C)C [MeSpe, N^1,N^1′-(butane-1,4-diyl)bis(N^1,N^3,N^3-trimethylpropane-1,3-diamine)]

Structure (SMILES): [Cl-].[Cl-].[Mg+2] [MgCl2]
osmotic pressure [6]: 800 atm

Structure (SMILES): CN(C)C1CCCCC1 [N,N-dimethylcyclohexylamine]
viscosity without CO2 [7]: 1.0 cS
viscosity with CO2 ([7]; CO2 30 minutes): 1.0 cS
hydrostatic pressure without CO2 ([8]; control experiments, height before CO2 treatment): 580 Pa
hydrostatic pressure with CO2 ([8]; nominal 0.1% (w/v), carbonated 1 h, CO2 atmosphere): 1550 Pa
pressure increase ([8]; ratio with CO2 / without CO2): 2.7

miscibility with water After addition of CO2 [1]: miscible
miscibility with water Before addition of CO2 [1]: immiscible
Structure (SMILES): CCCN(CC)CCCCN(CC)CCC [N,N′-diethyl-N,N′-dipropyl-1,4-diaminobutane]

miscibility with water After addition of CO2 [1]: immiscible
miscibility with water Before addition of CO2 [1]: immiscible
Structure (SMILES): CCCN(CCC)CCCCN(CCC)CCC [Pr2NCH2CH2CH2CH2NPr2, N,N,N′,N′-tetrapropyl-1,4-diaminobutane]

miscibility with water After addition of CO2 [1]: miscible
miscibility with water Before addition of CO2 [1]: immiscible
Structure (SMILES): CCN(CC)CCCCN(CC)CC [TEDAB, N,N,N′,N′-tetraethyl-1,4-diaminobutane]

% deprotonated ([9]; 2 hours N2 bubbling at 75° C.): 98%
% protonation ([9]; by 10 minutes CO2): 49%
Structure (SMILES): OCCN(CCO)CCN(CCO)CCO [THEED, N,N,N′,N′-tetrakis(2-hydroxyethyl) ethylenediamine]

reduction of conductivity ([4]; 1:1 v/v H2O:amine switched with CO2, 90 minutes at 80° C., N2 through glass frit): approximately 95%
Zeta Potential ([10]; 1 mM additive + […] CO2, illite clay): −4.69 ± 4.23 mV
Zeta Potential ([10]; 1 mM additive + […] CO2, montmorillonite clay): −3.20 ± 4.61 mV
Zeta Potential ([10]; 1 mM additive, illite clay): −39.5 ± 6.32 mV
Zeta Potential ([10]; 1 mM additive, montmorillonite clay): −40.2 ± 6.87 mV
Zeta Potential ([10]; 10 mM additive + […] CO2, illite clay): −3.12 ± 7.16 mV
Zeta Potential ([10]; 10 mM additive + […] CO2, montmorillonite clay): 9.07 ± 4.18 mV
Zeta Potential ([10]; 10 mM additive, illite clay): −48.2 ± 7.44 mV
Zeta Potential ([10]; 10 mM additive, montmorillonite clay): −23.6 ± 5.68 mV
Zeta Potential ([10]; 0.8 molal additive + 1 h CO2, illite clay): −4.56 mV
Zeta Potential ([10]; 0.8 molal additive + 1 h CO2, montmorillonite clay): −5.52 mV
Zeta Potential ([10]; 0.8 molal additive, illite clay): −26.0 ± 3.92 mV
Zeta Potential ([10]; 0.8 molal additive, montmorillonite clay): −25.8 ± 4.14 mV
Zeta Potential, Switching externally ([11]; 1 mM TMDAB): −39.6 ± 6.68 mV
Zeta Potential, Switching in situ ([11]; 1 mM TMDAB): −38.9 ± 8.69 mV
Zeta Potential, Switching externally ([11]; 1 mM TMDAB + 1 h CO2): −5.03 ± 4.46 mV
Zeta Potential, Switching in situ ([11]; 1 mM TMDAB + 1 h CO2): −0.31 ± 4.15 mV
Zeta Potential, Switching externally [11, 13]: −25.0 ± 5.84 mV
Zeta Potential, Switching in situ [11, 13]: −32.5 ± 6.38 mV
Zeta Potential ([11]; 1 mM additive + […] CO2): −5.03 ± 4.46 mV
Zeta Potential ([11]; 1 mM additive): −39.6 ± 6.68 mV
Zeta Potential ([11]; 10 mM additive + […] CO2): −3.35 ± 8.49 mV
Zeta Potential ([11]; 10 mM additive): −50.7 ± 13.1 mV
Zeta Potential ([11]; 0.8 molal additive + 1 h CO2): 2.29 mV
Zeta Potential ([11]; 0.8 molal additive): −17.4 ± 3.92 mV
pH ([12]; kaolinite Sample 2, 1 mM TMDAB): 7.13
pH ([12]; kaolinite Sample 2, 1 mM TMDAB + CO2): 4.75
pH ([12]; kaolinite Sample 2, 10 mM TMDAB): 10.41
pH ([12]; kaolinite Sample 2, 10 mM TMDAB + CO2): 5.95
Structure (SMILES): CN(C)CCCCN(C)C [TMDAB, N,N,N′,N′-tetramethyl-1,4-diaminobutane]

Structure (SMILES): CCCC[N+](CCCC)(CCCC)CCCC.[Br-] [[^nBu4N]Br, Tetra-n-butylammonium bromide]
C after 30 mins CO2 [3]: 1781 μS/cm
Initial C [3]: 1892 μS/cm

Structure (SMILES): OC[C@H]1O[C@@](CO)(O[C@H]2O[C@H](CO)[C@@H](O)[C@H](O)[C@H]2O)[C@@H](O)[C@@H]1O [sucrose]
osmotic pressure [6]: about 130 atm
